Data from PubChem BioAssay (NCI).
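Where inhibition never reached the appropriate level, the endpoint shown equals the highest concentration tested. Otherwise, values were interpolated linearly from a five-concentration, 48-hour dose response in 96-well plates. At the GI50, growth is halved. TGI: total growth inhibition.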

Legend:
Assay in all cases: NCI anticancer screen, dose series, 48 h
[1] = system: NCI/ADR-RES ovarian
[2] = system: UACC-257 melanoma
[3] = system: T-47D breast
[4] = system: KM12 colon
[5] = system: NCI-H460 lung
[6] = system: SNB-75 CNS
[7] = system: U251 CNS
[8] = system: SNB-19 CNS
[9] = system: MDA-MB-231 breast
[10] = system: A498 renal
[11] = system: OVCAR-4 ovarian

SMILES | TGI [1] [µM] | TGI [2] [µM] | TGI [3] [µM] | TGI [4] [µM] | TGI [5] [µM] | TGI [6] [µM] | TGI [7] [µM] | TGI [8] [µM] | TGI [9] [µM] | TGI [10] [µM] | TGI [11] [µM] | GI50 [10] [µM]
CC1CN=C(Nc2ccc(F)c(Cl)c2)S1 (centres undefined) | > 100 | > 100 | > 100 | > 100 | > 100 | > 100 | > 100 | > 100 | > 100 | > 100 |  | 
Cc1cccc2c1c(=O)c1c(O)cc(O)cc1n2C | > 100 | > 100 |  | > 100 | > 100 | > 100 | > 100 | > 100 | > 100 | > 100 | > 100 | 
CSCCC(C(=O)O)N(CC1(O)OCC(O)C(O)C1O)N=O (centres undefined) |  | > 100 |  | > 100 | > 100 | > 100 | > 100 |  |  | > 100 |  | 
O=C(C/C=C/c1ccccc1)c1ccccc1 | 33.7 | 72.1 | 42.7 | 25.6 | 60.6 | 69.2 | 29.9 |  |  | 36 |  | 
COC(=O)/C(C#N)=C(\N)c1c(C)c2ccccc2oc1=N |  | > 100 | > 100 | > 100 | > 100 | > 100 | > 100 | > 100 | > 100 | > 100 | > 100 | 
N#Cc1ccc(C2NN=CC23C(=O)c2ccccc2OC3c2ccccc2)cc1 (centres undefined) | > 100 | > 100 |  | > 100 | > 100 |  | 55.7 | > 100 | > 100 | > 100 | > 100 | 
S=C=NC1CCC(c2cc3ccccc3s2)(N2CCCCC2)CC1 (centres undefined) | 5.68 | 3.54 | 25.3 | 3.95 | 3.54 | 4.2 |  | 7.79 |  | 5.1 | 3.7 | 
O=C1c2ccccc2C(=O)N1CC(CN1C(=O)c2ccccc2C1=O)(C(=O)OCc1ccccc1)C(=O)OCc1ccccc1 | > 100 |  | > 100 | > 100 | > 100 | > 100 | > 100 | > 100 | > 100 | > 100 |  | 
COc1ccc(-c2cc(=O)c3c(O)cc(O)cc3o2)c(OC)c1OC |  | > 100 |  | > 100 |  | > 100 |  | > 100 |  |  | > 100 | 
COc1cc(C2c3c(ccc4ccccc34)C(=O)C3CCC(=O)N32)cc(OC)c1O (centres undefined) | > 25 | > 25 | > 25 | > 25 | > 25 | > 25 | > 25 | > 25 |  | > 25 | > 25 | 
COC(=O)C1C=CCON2CCc3c(n(S(=O)(=O)c4ccccc4)c4ccccc34)C12 (centres undefined) |  | > 90.3 |  | > 55.6 | > 92.3 | > 100 | > 42.1 | > 77.7 |  | > 100 | > 31.6 | 
c1ccc([P+](c2ccccc2)(c2ccccc2)C2c3ccccc3-c3ccccc32)cc1 | 41.9 | 5.91 | 12.5 |  | 10.2 | 7.06 | 4.12 | 10.3 | 6.84 | 4.51 |  | 
O=c1c([OH2+])c(-c2ccc(O)cc2[O-])oc2cc(O)cc([O-])c12.O=c1c([OH2+])c(-c2ccc(O)cc2[O-])oc2cc(O)cc([O-])c12.[Ti+4] |  | > 100 |  | > 100 | > 100 | > 100 |  | > 100 |  | > 100 | > 100 | > 100
COC1C(O)C(C)OC(OC2CCC3(C)C(CCC4C3C(O)CC3(C)C(C5=CC(=O)OC5)CCC43O)C2)C1O (centres undefined) |  | 3.13 | 2.59 | 6.12 | 0.777 | 2.78 |  | 2.04 | 24.4 | 0.703 |  | 
CC1=C2C3OC(=O)C(C)C3CCC2(C)C=CC1=Nc1ccccc1 (centres undefined) | > 100 | > 100 |  | > 100 | > 100 | > 100 | > 100 | > 100 |  | > 100 | > 100 | 
COC1=CC(=O)C2=C(C[C@@]3(C)C(=C2)C(CO)=CC[C@H]3O)C1=O | 56.1 | 36.9 | > 100 | > 100 | 60.7 |  | 41.6 | > 100 | 13.2 | > 100 | 31.8 | 
CC(=O)/C(C=Nc1c(C)n(C)n(C)c1=O)=C(/O)c1ccccc1 |  | > 50 | > 50 |  | > 50 |  | > 50 | > 50 | > 50 | > 50 | > 50 | 
CN(C(=O)c1ccco1)C(=S)N1CCN(c2ccccn2)CC1 |  | > 100 |  | > 100 | > 100 | > 100 | > 100 | > 100 |  |  | > 100 | 
O=C1C=CC2(C=C1)C[C@H](NC(=O)OCc1ccccc1)C(=O)O2 |  | 33.2 | 49.9 | 35.7 | 59.9 | 61.4 | 37.1 | > 100 | 32.6 | > 100 | 39.6 | 
O=C1CCCc2ccc3c(c21)CC1(Cc2ccccc2C1)C3 | > 100 | 58 | > 100 | > 100 |  | 9.64 | > 100 |  | > 100 | > 100 | 98.8 | 
C/C(Cc1ccc2c(c1)OCO2)=N\NC(=O)C(C)Sc1nnc(SC(C)C(=O)N/N=C(\C)Cc2ccc3c(c2)OCO3)s1 (centres undefined) | > 100 | > 100 |  | > 100 | > 100 | > 100 | > 100 | > 100 | > 100 | > 100 | > 100 | 
C=C1Cc2cc(OC)c(OC)c(OC)c2-c2ccc(SC)c(=O)cc21 |  | 7.62 |  | < 0.01 | < 0.035 | 15.1 |  | 5.3 |  | 0.421 | 18.9 | 
Cc1c(F)c(NC(=O)CN(C)C)c2c(=O)cc(-c3ccc(NC(=O)CN(C)C)c(F)c3)oc2c1F | 39.6 | 48.1 | 55.8 | 30.5 | 29 |  | 27.2 | 41.2 | 26.9 | 3.64 | 37.6 | 
CCCNC(=O)N(C)C(=O)N1N=C(c2ccccc2)C1c1ccccc1 (centres undefined) | > 100 | > 100 | > 100 | > 100 |  | > 100 | > 100 | > 100 | > 100 | > 100 | > 100 | 
